The target of this assay is T1, human PF4 (Homo sapiens, UniProt P02776).
T1 construct: PF4 is a 70 amino acid, lysine-rich 7.8 kDa platelet-specific protein; made in house; host or cells: Escherichia coli BL21DE3 pLysS (pT7-7) and/or Drosophila S2 cells
T1 sequence (P02776 32-101): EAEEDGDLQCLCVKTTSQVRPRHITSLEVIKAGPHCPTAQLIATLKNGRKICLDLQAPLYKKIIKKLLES
The assay can be described thus: Inhibition of PF4 tetramer formation (BS3 cross-linking, SDS-PAGE). To be noted: for inhibition at 5 µM: 5 μM inhibitor; for inhibition at 5 µM / inhibition at 10 µM: read-out: % inhibition of PF4 tetramer formation at single concentration of inhibitor; for inhibition at 10 µM: 10 μM inhibitor (column A); for IC50: read-out: IC50 of PF4 tetramer formation inhibition. It counts as biochemical. The method, boiled down: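 Recombinant human wild-type PF4 (E. coli-expressed, heparin-purified), 10 μg/ml in PBS, incubated with compound 15 min at 37° C or 60 min at room temperature, then cross-linked with 0.2 mM BS3 for 30 min at room temperature. Reducing 12% SDS-PAGE; bands quantified as % tetramer, trimer, dimer, monomer versus compound-free control.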

Consider `COc1ccc(NC(=O)C2C(=O)c3ccc(S(=O)(=O)c4ccc5c(c4)C(=O)C(C(=O)Nc4ccc(OC)cc4OC)C5=O)cc3C2=O)c(OC)c1` (stereo not drawn) [Example 94, N-(2,4-dimethoxyphenyl)-5-({2-[(2,4-dimethoxyphenyl)carbamoyl]-1,3-dioxo-2,3-dihydro-1H-inden-5-yl}sulfonyl)-1,3-dioxo-2,3-dihydro-1H-indene-2-carboxamide], for which the inhibition at 5 µM was 33% and the inhibition at 10 µM was found to be 62%.

`O=C(Nc1ccc(I)cc1)C1C(=O)c2ccc(S(=O)(=O)c3ccc4c(c3)C(=O)C(C(=O)Nc3ccc(I)cc3)C4=O)cc2C1=O` (stereo not drawn) [Example 95, N-(4-iodophenyl)-5-({2-[(4-iodophenyl)carbamoyl]-1,3-dioxo-2,3-dihydro-1H-inden-5-yl}sulfonyl)-1,3-dioxo-2,3-dihydro-1H-indene-2-carboxamide]: the inhibition at 5 µM was 33% and the inhibition at 10 µM was 69%.

Consider `COc1ccc(NC(=O)C2C(=O)c3ccc(C(=O)c4ccc5c(c4)C(=O)C(C(=O)Nc4ccc(OC)cc4OC)C5=O)cc3C2=O)c(OC)c1` (stereo not drawn) [Example 96, N-(2,4-dimethoxyphenyl)-5-{2-[(2,4-dimethoxyphenyl)carbamoyl]-1,3-dioxo-2,3-dihydro-1H-indene-5-carbonyl}-1,3-dioxo-2,3-dihydro-1H-indene-2-carboxamide], for which the inhibition at 5 µM is 36% and the inhibition at 10 µM is 70%.

As for `COC(=O)c1ccccc1NC(=O)C1C(=O)c2ccc(S(=O)(=O)c3ccc4c(c3)C(=O)C(C(=O)Nc3ccccc3C(=O)OC)C4=O)cc2C1=O` (stereo not drawn) [Example 97, methyl 2-{5-[(2-{[2-(methoxycarbonyl)phenyl]carbamoyl}-1,3-dioxo-2,3-dihydro-1H-inden-5-yl)sulfonyl]-1,3-dioxo-2,3-dihydro-1H-indene-2-amido}benzoate], the inhibition at 5 µM was 100%, the inhibition at 10 µM stood at 100% and the IC50 was determined as 8.9 µM.

Regarding `COC(=O)c1ccc(NC(=O)C2C(=O)c3ccc(S(=O)(=O)c4ccc5c(c4)C(=O)C(C(=O)Nc4ccc(C(=O)OC)cc4)C5=O)cc3C2=O)cc1` (stereo not drawn) [Example 98, methyl 4-{5-[(2-{[4-(methoxycarbonyl)phenyl]carbamoyl}-1,3-dioxo-2,3-dihydro-1H-inden-5-yl)sulfonyl]-1,3-dioxo-2,3-dihydro-1H-indene-2-amido}benzoate], the inhibition at 5 µM worked out at 100% and the inhibition at 10 µM stood at 100%.

With `COC(=O)c1ccccc1NC(=O)C1C(=O)c2ccc(C(=O)c3ccc4c(c3)C(=O)C(C(=O)Nc3ccccc3C(=O)OC)C4=O)cc2C1=O` (stereo not drawn) [Example 99, methyl 2-[5-(2-{[2-(methoxycarbonyl)phenyl]carbamoyl}-1,3-dioxo-2,3-dihydro-1H-indene-5-carbonyl)-1,3-dioxo-2,3-dihydro-1H-indene-2-amido]benzoate], the inhibition at 5 µM amounted to 44%, the inhibition at 10 µM is 100% and the IC50 was 13 µM.

On to `COc1cc(CCNC(=O)C2C(=O)c3ccc(C(=O)c4ccc5c(c4)C(=O)C(C(=O)NCCc4cc(OC)cc(OC)c4)C5=O)cc3C2=O)cc(OC)c1` (stereo not drawn) [Example 100, N-[2-(3,5-dimethoxyphenyl)ethyl]-5-(2-{[2-(3,5-dimethoxyphenyl)ethyl]carbamoyl}-1,3-dioxo-2,3-dihydro-1H-indene-5-carbonyl)-1,3-dioxo-2,3-dihydro-1H-indene-2-carboxamide], for which the 50% inhibitory concentration (IC50) is approximately 13 µM.

As to `CCCCc1ccc(NC(=O)C2C(=O)c3ccc(C(=O)c4ccc5c(c4)C(=O)C(C(=O)Nc4ccc(CCCC)cc4)C5=O)cc3C2=O)cc1` (stereo not drawn) [Example 101, N-(4-butylphenyl)-5-{2-[(4-butylphenyl)carbamoyl]-1,3-dioxo-2,3-dihydro-1H-indene-5-carbonyl}-1,3-dioxo-2,3-dihydro-1H-indene-2-carboxamide], the inhibition at 5 µM turned out to be 80% and the inhibition at 10 µM turned out to be 71%.

For the compound `CCCCc1ccc(NC(=O)C2C(=O)c3ccc(S(=O)(=O)c4ccc5c(c4)C(=O)C(C(=O)Nc4ccc(CCCC)cc4)C5=O)cc3C2=O)cc1` (stereo not drawn) [Example 102], the inhibition at 5 µM came out at 78%, the inhibition at 10 µM came to 100% and the half-inhibitory concentration (IC50) worked out at 2.9 µM.

With `CC(=O)c1cccc(NC(=O)C2C(=O)c3ccc(C(=O)c4ccc5c(c4)C(=O)C(C(=O)Nc4cccc(C(C)=O)c4)C5=O)cc3C2=O)c1` (stereo not drawn) [Example 103, N-(3-acetylphenyl)-5-{2-[(3-acetylphenyl)carbamoyl]-1,3-dioxo-2,3-dihydro-1H-indene-5-carbonyl}-1,3-dioxo-2,3-dihydro-1H-indene-2-carboxamide], the inhibition at 5 µM stood at 66%, the inhibition at 10 µM is 77% and the IC50 came to 0.5 µM.

With `O=C(NCc1ccco1)C1C(=O)c2ccc(S(=O)(=O)c3ccc4c(c3)C(=O)C(C(=O)NCc3ccco3)C4=O)cc2C1=O` (stereo not drawn) [Example 104, N-[(furan-2-yl)methyl]-5-[(2-{[(furan-2-yl)methyl]carbamoyl}-1,3-dioxo-2,3-dihydro-1H-inden-5-yl)sulfonyl]-1,3-dioxo-2,3-dihydro-1H-indene-2-carboxamide], the IC50 came to 1.4 µM.

For `O=C(c1ccc2c(c1)C(=O)C(C(=O)Nc1ccc(I)cc1)C2=O)c1ccc2c(c1)C(=O)C(C(=O)Nc1ccc(I)cc1)C2=O` (stereo not drawn) [Example 105, N-(4-iodophenyl)-5-{2-[(4-iodophenyl)carbamoyl]-1,3-dioxo-2,3-dihydro-1H-indene-5-carbonyl}-1,3-dioxo-2,3-dihydro-1H-indene-2-carboxamide], the IC50 was determined as 2.8 µM.

Regarding `O=C(NC1CC1)C1C(=O)c2ccc(Oc3ccc4c(c3)C(=O)C(C(=O)NC3CC3)C4=O)cc2C1=O` (stereo not drawn) [Example 106, N-cyclopropyl-5-{[2-(cyclopropylcarbamoyl)-1,3-dioxo-2,3-dihydro-1H-inden-5-yl]oxy}-1,3-dioxo-2,3-dihydro-1H-indene-2-carboxamide], the IC50 is approximately 4 µM.

As for `O=C(NC1CCCC1)C1C(=O)c2ccc(Oc3ccc4c(c3)C(=O)C(C(=O)NC3CCCC3)C4=O)cc2C1=O` (stereo not drawn) [Example 107, N-cyclopentyl-5-{[2-(cyclopentylcarbamoyl)-1,3-dioxo-2,3-dihydro-1H-inden-5-yl]oxy}-1,3-dioxo-2,3-dihydro-1H-indene-2-carboxamide], the IC50 came out at 2.9 µM.

As to `O=C(NC1CC1)C1C(=O)c2ccc(C(c3ccc4c(c3)C(=O)C(C(=O)NC3CC3)C4=O)(C(F)(F)F)C(F)(F)F)cc2C1=O` (stereo not drawn) [Example 108, N-cyclopropyl-5-{2-[2-(cyclopropylcarbamoyl)-1,3-dioxo-2,3-dihydro-1H-inden-5-yl]-1,1,1,3,3,3-hexafluoropropan-2-yl}-1,3-dioxo-2,3-dihydro-1H-indene-2-carboxamide], the IC50 came out at 5.4 µM.

Take `O=C(NC1CCCC1)C1C(=O)c2ccc(C(c3ccc4c(c3)C(=O)C(C(=O)NC3CCCC3)C4=O)(C(F)(F)F)C(F)(F)F)cc2C1=O` (stereo not drawn) [Example 109, N-cyclopentyl-5-{2-[2-(cyclopentylcarbamoyl)-1,3-dioxo-2,3-dihydro-1H-inden-5-yl]-1,1,1,3,3,3-hexafluoropropan-2-yl}-1,3-dioxo-2,3-dihydro-1H-indene-2-carboxamide]: the inhibition at 5 µM was 68% and the inhibition at 10 µM is 59%.

By IC50 is commonly meant the concentration that inhibits the measured activity by half.

Values taken from US20250281424A1 (New York Blood Center, Inc, priority 2020, published 2025).
